Measured values: US6191138A, “Phenanthridines” (Byk Gulden Lomberg Chemische Fabrik GmbH, priority 1996, dated 2001)

Each compound was assayed on PDE IV (assay: Inhibition of PDE IV Activity (method of Bauer and Schwabe, adapted to microtiter plates)).
Format: biochemical

Q: With `CCOc1cc2c(cc1OC)[C@@H]1CCCC[C@@H]1N=C2c1ccc(C(=O)OC)cc1` (racemic) [Compound 5, (+/ -)-cis-8-ethoxy-9-methoxy-6-[4-(methoxycarbonyl)phenyl]-1,2,3,4,4a,10b-hexahydrophenanthridine] as the compound, how does the “-log IC50 (Inhibition of PDE IV Activity)” value read?
A: 7.02

Q: With `CNC(=O)c1ccc(C2=N[C@H]3CCCC[C@H]3c3cc(OC)c(OC)cc32)cc1` (racemic) [Compound 20, (+/-)-cis-6-[4-(N-methylaminocarbonyl)phenyl]-8,9-dimethoxy-1,2,3,4,4a ,10b-hexahydrophenanthridine] as the compound, how does the “-log IC50 (Inhibition of PDE IV Activity)” value read?
A: 5.18

Q: `COc1cc2c(cc1OC)[C@@H]1CCCC[C@@H]1N=C2c1ccc(C(=O)OCC2CC2)cc1` (racemic) [Compound 13, (+/ -)-cis-8,9-dimethoxy-6-[4-(cyclopropylmethoxycarbonyl)phenyl]-1,2,3,4,4a ,10b-hexahydrophenanthridine] was tested. Which “-log IC50 (Inhibition of PDE IV Activity)” value did it give?
A: 7.39

Q: `COC(=O)c1ccc(C2=N[C@H]3CCCC[C@@H]3c3cc(OC)c(OC)cc32)cc1` (racemic) [Compound 8, (+/ -)-trans-8,9-dimethoxy-6-[4-(methoxycarbonyl)phenyl]-1,2,3,4,4a,10b-hexahydrophenanthridine] was tested. Which “-log IC50 (Inhibition of PDE IV Activity)” value did it give?
A: 5.92

Q: `CCOc1cc2c(cc1OCC)[C@@H]1CCCC[C@@H]1N=C2c1cccc(C(=O)O)c1.Cl` (racemic) [Compound 18, (+/ -)-cis-6-(3-carboxyphenyl)-8,9-diethoxy-1,2,3,4,4a,10b-hexahydrophenanthridine hydrochloride] was tested. Which “-log IC50 (Inhibition of PDE IV Activity)” value did it give?
A: 7.69

Q: Which “-log IC50 (Inhibition of PDE IV Activity)” value does the source give for `CCOc1cc2c(cc1OCC)[C@@H]1CCCC[C@@H]1N=C2c1ccc(C(=O)OC)cc1` (single isomer, unassigned) [Compound 9, (-)-cis-8,9-diethoxy-6-[4-(methoxycarbonyl)phenyl]-1,2,3,4,4a,10b-hexahydrophenanthridine] here?
A: 8.52

Q: `COC(=O)c1ccc(C2=N[C@H]3CCCC[C@H]3c3cc(OC(F)F)c(OC)cc32)cc1` (racemic) [Compound 3, (+/ -)-cis-9-difluoromethoxy-8-methoxy-6-[4-(methoxycarbonyl)phenyl]-1,2,3,4,4a ,10b-hexahydrophenanthridine] was tested. Which “-log IC50 (Inhibition of PDE IV Activity)” value did it give?
A: 7.73

Q: Which “-log IC50 (Inhibition of PDE IV Activity)” value does the source give for `CCOc1cc2c(cc1OCC)[C@@H]1CCCC[C@@H]1N=C2c1ccccc1C(=O)OC` (racemic) [Compound 7, (+/ -)-cis-8,9-diethoxy-6-[2-(methoxycarbonyl)phenyl]-1,2,3,4,4a,10b-hexahydrophenanthridine] here?
A: 6.34

Q: For `COc1cc2c(cc1OC)[C@@H]1CCCC[C@@H]1N=C2c1ccc(C(=O)O)cc1.Cl` (racemic) [Compound 15, (+/ -)-cis-6-(4-carboxyphenyl)-8,9-dimethoxy-1,2,3,4,4a,10b-hexahydrophenanthridine hydrochloride], which “-log IC50 (Inhibition of PDE IV Activity)” value is on record?
A: 6.81

Q: How did the “-log IC50 (Inhibition of PDE IV Activity)” value turn out when `CCOc1cc2c(cc1OCC)[C@@H]1CCCC[C@@H]1N=C2c1ccc(C(=O)OC)cc1` (single isomer, unassigned) [Compound 10, (+)-cis-8,9-diethoxy-6-[4-(methoxycarbonyl)phenyl]-1,2,3,4,4a,10b-hexahydrophenanthridine] was run?
A: 7.48

Q: With `CCOc1cc2c(cc1OC)[C@@H]1CCCC[C@@H]1N=C2c1ccc(C(=O)O)cc1.Cl` (racemic) [Compound 17, (+/ -)-cis-6-(4-carboxyphenyl)-8-ethoxy-9-methoxy-1,2,3,4,4a,10b-hexahydrophenanthridine hydrochloride] as the compound, how does the “-log IC50 (Inhibition of PDE IV Activity)” value read?
A: 6.79

Q: How did the “-log IC50 (Inhibition of PDE IV Activity)” value turn out when `CCOc1cc2c(cc1OCC)[C@@H]1CCCC[C@@H]1N=C2c1cccc(C(=O)OC)c1` (racemic) [Compound 6, (+/-)-cis-8,9-diethoxy-6-[3-(methoxycarbonyl)phenyl]-1,2,3,4,4a ,10b-hexahydrophenanthridine] was run?
A: 8.14

Q: How did the “-log IC50 (Inhibition of PDE IV Activity)” value turn out when `COC(=O)c1ccc(C2=N[C@H]3CCCC[C@H]3c3cc(OC)c(OC)cc32)cc1` (single isomer, unassigned) [Compound 11, (-)-cis-8,9-dimethoxy-6-[4-(methoxycarbonyl)phenyl]-1,2,3,4,4a,10b-hexahydrophenanthridine] was run?
A: 7.52

Q: How did the “-log IC50 (Inhibition of PDE IV Activity)” value turn out when `CCOc1cc2c(cc1OC)C(c1ccc(C(=O)O)cc1)=N[C@H]1CCCC[C@@H]21.Cl` (racemic) [Compound 16, (+/ -)-cis-6-(4-carboxyphenyl)-9-ethoxy-8-methoxy-1,2,3,4,4a,10b-hexahydrophenanthridine hydrochloride] was run?
A: 8.66

Q: For `CCOc1cc2c(cc1OCC)[C@@H]1CCCC[C@@H]1N=C2c1ccc(C(=O)O)cc1.Cl` (racemic) [Compound 14, (+/ -)-cis-6-(4-carboxyphenyl)-8,9-diethoxy-1,2,3,4,4a,10b-hexahydrophenanthridine hydrochloride], which “-log IC50 (Inhibition of PDE IV Activity)” value is on record?
A: 8.27

Q: `COc1cc2c(cc1OC(F)F)[C@@H]1CCCC[C@@H]1N=C2c1ccc(C(=O)O)cc1.Cl` (racemic) [Compound 19, (+/ -)-cis-6-(4-carboxyphenyl)-9-difluoromethoxy-8-methoxy-1,2,3,4,4a,10b-hexahydrophenanthridine hydrochloride] was tested. Which “-log IC50 (Inhibition of PDE IV Activity)” value did it give?
A: 7.55

Q: Which “-log IC50 (Inhibition of PDE IV Activity)” value does the source give for `CCOc1cc2c(cc1OC)C(c1ccc(C(=O)OC)cc1)=N[C@H]1CCCC[C@@H]21` (racemic) [Compound 4, (+/ -)-cis-9-ethoxy-8-methoxy-6-[4-(methoxycarbonyl)phenyl]-1,2,3,4,4a,10b-hexahydrophenanthridine] here?
A: 8.73

Q: For `CCOc1cc2c(cc1OCC)[C@@H]1CCCC[C@@H]1N=C2c1ccc(C(=O)OC)cc1` (racemic) [Compound 2, (+/ -)-cis-8,9-diethoxy-6-[4-(methoxycarbonyl)phenyl]-1,2,3,4,4a,10b-hexahydrophenanthridine], which “-log IC50 (Inhibition of PDE IV Activity)” value is on record?
A: 8.84

Q: For `COC(=O)c1ccc(C2=N[C@H]3CCCC[C@H]3c3cc(OC)c(OC)cc32)cc1` (racemic) [Compound 1, (+/ -)-cis-8,9-dimethoxy-6-[4-(methoxycarbonyl)phenyl]-1,2,3,4,4a,10b-hexahydrophenanthridine], which “-log IC50 (Inhibition of PDE IV Activity)” value is on record?
A: 7.39

Q: Which “-log IC50 (Inhibition of PDE IV Activity)” value does the source give for `COC(=O)c1ccc(C2=N[C@H]3CCCC[C@H]3c3cc(OC)c(OC)cc32)cc1` (single isomer, unassigned) [Compound 12, (+)-cis-8,9-dimethoxy-6-[4-(methoxycarbonyl)phenyl]-1,2,3,4,4a,10b-hexahydrophenanthridine] here?
A: 4.95
